Values after ≈ are worked out from the molar mass of the structure shown.
Key:
Folsomia candida = conditions: chronic/long-term; duration: 28 days; reproduction
Apis mellifera = conditions: acute, mortality
Pimephales promelas = conditions: acute; duration: 96 hours; mortality
Canidae = conditions: chronic; duration: 1 years; oral; Dog Other; gross pathology
Tagia sp. = conditions: chronic/long-term; duration: 56 days; reproduction
Oryctolagus sp. = conditions: reproduction developmental; clinical signs
Rattus norvegicus = conditions: for LD50: acute, mortality
Aphidius rhopalosiphi = experiment: LR50; higher = less toxic; conditions: not reported; mortality
Typhlodromus pyri = experiment: LR50; higher = less toxic; conditions: not reported; mortality
Bibionidae = conditions: chronic/long-term; duration: 28 days
Oncorhynchus mykiss = conditions: acute; duration: 96 hours; mortality
[1] = chronic, duration: 2 years, organ weight

Structure (SMILES) | NOEC (Folsomia candida) [mg/kg] | LD50 (Apis mellifera; dermal) [µg/piece] | LD50 (Apis mellifera; oral, unspecified) [µg/piece] | LC50 (Pimephales promelas) [µg/mL] | NOAEL (Canidae) [mg/kg-day] | NOEC (Tagia sp.) [mg/kg] | NOAEL (Oryctolagus sp.) [mg/kg-day] | LD50 (Rattus norvegicus) [mg/kg] | NOAEL (Rattus norvegicus; chronic) [mg/kg-day] | NOAEL (Rattus norvegicus; [1]) [mg/kg-day] | LR50 (Aphidius rhopalosiphi) [g/ha] | LR50 (Typhlodromus pyri) [g/ha] | NOEC (Bibionidae) [mg/kg] | LD50 (Colinus virginianus; acute, oral, mortality) [mg/kg] | NOEC (Colinus virginianus; chronic) [mg/kg-day] | LD50 (Rattus norvegicus; oral) [mg/kg] | NOAEL (Rattus norvegicus; reproduction developmental, reproduction) [mg/kg-day] | LC50 (Oncorhynchus mykiss) [µg/mL]
Oc1ccc(Cl)cc1Cl [2,4-Dichlorophenol] | 0.63 | – | – | – | – | – | – | – | – | – | – | – | – | – | – | – | – | –
O=C(O)COc1ccc(Cl)cc1Cl [2,4-Dichlorophenoxyacetic acid] | – | > 100 | 94 | 100 (≈ 452 µM) | 2.04 | 62.5 | 30 | 486 | 20.6 | 2.48 | – | – | – | – | – | – | – | –
O=C(O)CCCOc1ccc(Cl)cc1Cl [2,4-Dichlorophenoxybutyric acid] | – | > 100 | > 100 | – | 2.04 | 82.1 | 30 | – | – | 2.48 | > 1800 | > 1800 | 24.6 | 1540 | 101 | 1470 | 22.5 | 3 (≈ 12 µM)
